Results reported in US6342261B1, “Method of preserving foods using noble gases” (American Air Liquide, priority 1992, dated 2002).
Where “and” joins values, the source holds several entries; their conditions need not be identical. Equal entries are not always repeated.

What was measured:
Anaerobes = assay: Total microorganisms from product trials: anaerobes; type: cell-based
Experimental: (§1) Many different products were assayed under a wide variety of temperatures and pressures, packaging treatments, and post-packaging handling. In the general experiment, sterile pouches of impermeable film were filled with freshly-obtained food products under recommended handling regimes. Each was then purged thoroughly with the gas mixture to be tested. Then sealed, the pouch was further treated by cooking, cold storage, or other parameter, or else was not. The sealed pouch was stored at room, cold, or freezing temperature, and periodically sampled for microorganism counts (total, aerobic, anaerobic, Pseudomonas, Lactobacilli). It was also studied for observable deterioration and scored. Some samples were subjected to appropriate chemical analysis. Others were sampled for specific enzyme activities as above. All told, the average experiment consisted of replicate samples of product being assayed for microbial counts, microbial identifications, enyzme activities, chemical oxidation, discoloration, odor and/or taste changes, and final carbon dioxide and oxygen concentrations. Microbes and enzymes known to be important in the degradation of each individual product were selected for examination and scoring from the literature.

[1] = tested on: Acetyl-CoA synthetase EC 6.2.1.1; assay: Enzyme activity under gas: acetyl-CoA synthetase; type: biochemical
Experimental: (§2) Sealed cuvettes containing enzymes representative of and in fact important in food product degradation processes were thoroughly purged and filled with assay gases. Injection of gassed substrate solutions started the reactions, which were generally conducted under optimal conditions. These were monitored […] by scanning uv/vis spectrophotometry. All controls were conducted for oxygen, nitrogen and carbon dioxide. A range of temperatures and pressures were employed. An example protocol is appended. Results were expressed in real-time, and transformed to calculate yield and rate differences for the reaction. Over 50 exemplary enzymes were so assayed. Enzymes selected for examination from various products are assayed in precisely the same manner, but always in terms of relative activity in comparison with that product in air or another control gas or gas mixture.
(§3) The follwing Table summarizes the maximum inhibition of enzymes activity realized with various noble gases under various storage conditions.

Aerobes = assay: Total microorganisms from product trials: aerobes; type: cell-based
Experimental: as §1

[2] = target: Gamma-glutamyl transpeptidase EC 2.3.2.2 (Homo sapiens, UniProt P19440); assay: Enzyme activity under gas: gamma-glutamyl transpeptidase; type: biochemical
Chain of Gamma-glutamyl transpeptidase EC 2.3.2.2 (P19440 whole entry): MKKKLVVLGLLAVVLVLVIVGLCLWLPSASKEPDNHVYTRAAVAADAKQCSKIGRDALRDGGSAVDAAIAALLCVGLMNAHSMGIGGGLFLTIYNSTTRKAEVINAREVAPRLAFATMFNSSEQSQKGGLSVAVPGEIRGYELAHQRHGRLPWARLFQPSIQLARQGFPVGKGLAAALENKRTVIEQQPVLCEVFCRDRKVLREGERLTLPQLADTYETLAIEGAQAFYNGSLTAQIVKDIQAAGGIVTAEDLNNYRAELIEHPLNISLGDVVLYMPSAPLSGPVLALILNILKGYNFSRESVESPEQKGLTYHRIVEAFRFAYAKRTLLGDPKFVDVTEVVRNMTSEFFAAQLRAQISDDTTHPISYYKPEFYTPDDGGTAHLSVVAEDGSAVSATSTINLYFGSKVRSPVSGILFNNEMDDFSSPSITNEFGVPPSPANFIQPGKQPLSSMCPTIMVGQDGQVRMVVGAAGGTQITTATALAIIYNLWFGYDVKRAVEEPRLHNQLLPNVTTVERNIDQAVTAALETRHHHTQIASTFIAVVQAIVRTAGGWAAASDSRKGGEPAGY
Experimental: as §2, §3

Molds = assay: Total microorganisms from product trials: molds; type: cell-based
Experimental: as §1

Tyrosinase EC 1.14.18.1 = assay: Enzyme activity under gas: tyrosinase; type: biochemical; conditions: 25°, optimal reaction conditions, simple saturation of solution with gas
Experimental: as §2, §3
at 25° and optimal reaction conditions, simple saturation of solution with gas: […]

[3] = target: Glucose oxidase EC 1.1.3.4 (Aspergillus niger, UniProt P13006); assay: Enzyme activity under gas: glucose oxidase; type: biochemical
Chain of Glucose oxidase EC 1.1.3.4 (P13006 17-605): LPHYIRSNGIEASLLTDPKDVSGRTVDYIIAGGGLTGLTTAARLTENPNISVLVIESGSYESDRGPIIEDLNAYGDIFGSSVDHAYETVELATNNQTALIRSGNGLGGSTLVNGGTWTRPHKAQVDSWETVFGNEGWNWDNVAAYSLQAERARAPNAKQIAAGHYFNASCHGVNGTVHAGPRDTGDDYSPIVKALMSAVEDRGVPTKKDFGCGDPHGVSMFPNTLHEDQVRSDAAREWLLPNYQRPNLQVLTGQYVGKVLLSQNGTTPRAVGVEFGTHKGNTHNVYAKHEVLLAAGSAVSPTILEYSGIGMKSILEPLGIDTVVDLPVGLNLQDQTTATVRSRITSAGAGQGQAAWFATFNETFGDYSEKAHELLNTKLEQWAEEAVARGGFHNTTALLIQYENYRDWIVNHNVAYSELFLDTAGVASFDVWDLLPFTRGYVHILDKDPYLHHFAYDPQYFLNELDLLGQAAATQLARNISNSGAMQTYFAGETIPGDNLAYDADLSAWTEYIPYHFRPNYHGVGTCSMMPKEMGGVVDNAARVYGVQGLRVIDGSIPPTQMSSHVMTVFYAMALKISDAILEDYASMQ
Experimental: as §2, §3

Lipase EC 3.1.1.3 = assay: Enzyme activity under gas: lipase; type: biochemical
Experimental: as §2, §3

[4] = tested on: Class V. Isomerases (EC 5); assay: Enzyme activity under gas: Class V isomerases (enzyme not named); type: biochemical
Experimental: as §2, §3

[5] = tested on: Aspartate aminotransferase (EC 2.6.1.1); assay: Enzyme activity under gas: aspartate aminotransferase; type: biochemical
Experimental: as §2, §3

Yeasts = assay: Total microorganisms from product trials: yeasts; type: cell-based
Experimental: as §1

Yeasts and molds = assay: Yeast and mold growth on bread and pasta under gases; type: cell-based
Experimental: as §1, with “concentrations.” for “concentrations. Microbes and enzymes known to be important in the degradation of each individual product were selected for examination and scoring from the literature.”

[6] = Chemical oxidation reactions of food components under gases; conditions: even in the presence of oxygen; pigments, phenolics, ascorbic acid of the product section
From the text: Other oxygenated species, such as carbon dioxide are reactively destructive.
That is, in accordance with the present invention, it has been discovered that certain gases can directly affect the oxidation rate of chemicals and not merely slow oxidation only as function of physical and inert displacement of oxygen. Generally, the present invention is effected by contacting the chemicals or chemical preparations during at least a protion of storage thereof to a noble gas, a mixture of noble gases or a gaseous mixture containing at least one noble gas.

Phosphoglucose isomerase = Phosphoglucose isomerase (Homo sapiens, UniProt P06744); assay: Enzyme activity under gas: phosphoglucose isomerase; type: biochemical
Experimental: as §2, §3

Structure (SMILES): [Ar] [Ar, argon]
- % Inhibition Compared to 100% CO2 (Anaerobes; Carrots): 9%
- % Inhibition Compared to 100% CO2 (Anaerobes; Fish Fillets): 2%
- % Inhibition Compared to 100% CO2 (Anaerobes; Green Beans, Refrigerated): 61%
- % Inhibition Compared to 100% CO2 (Anaerobes; Ground Beef): 16%
- % Inhibition Compared to 100% Air (Anaerobes; Lettuce): 16%
- % Inhibition Compared to 100% CO2 (Anaerobes; Mixed Salad (Chef Salad)): 6% and 1%
- % Inhibition Compared to 100% CO2 (Anaerobes; Shrimp): 4%
- % Inhibition Compared to 100% CO2 (Anaerobes; Smelt): 30%
- % Inhibition Compared to 100% CO2 (Anaerobes; Steaks): 6%
- % Inhibition Compared to 100% CO2 (Anaerobes; Tomatoes): 22%
- Result [1]: −75%
- % Inhibition Compared to 100% Air (Aerobes; Carrots): 33%
- % Inhibition Compared to 100% Air (Aerobes; Fish Fillets): 13%
- % Inhibition Compared to 100% Air (Aerobes; Green Beans, Refrigerated): 11%
- % Inhibition Compared to 100% Air (Aerobes; Green Beans, Room Temperature): 2%
- % Inhibition Compared to 100% Air (Aerobes; Ground Beef): 0.4%
- % Inhibition Compared to 100% Air (Aerobes; Lettuce): 0.4%
- % Inhibition Compared to 100% Air (Aerobes; Mixed Salad (Chef Salad)): 12%
- % Inhibition Compared to 100% Air (Aerobes; Shrimp): 1%
- % Inhibition Compared to 100% Air (Aerobes; Steaks): 13%
- % Inhibition Compared to 100% Air (Aerobes; Strawberries): 40%
- % Inhibition Compared to 100% Air (Aerobes; Tomatoes): 96%
- Result (inhibition), maximum inhibition of enzyme activity [2]: −5%
- % Inhibition Compared to 100% Air (Molds; Carrots): 20%
- % Inhibition Compared to 100% Air (Molds; Fish Fillets): 15%
- % Inhibition Compared to 100% Air (Molds; Green Beans, Refrigerated): 25%
- % Inhibition Compared to 100% Air (Molds; Green Beans, Room Temperature): 15%
- % Inhibition Compared to 100% Air (Molds; Ground Beef): 4%
- % Inhibition Compared to 100% Air (Molds; Lettuce): 4%
- % Inhibition Compared to 100% Air (Molds; Mixed Salad (Chef Salad)): 2%
- % Inhibition Compared to 100% Air (Molds; Shrimp): 5%
- % Inhibition Compared to 100% Air (Molds; Smelt): 22%
- % Inhibition Compared to 100% Air (Molds; Steaks): 27%
- % Inhibition Compared to 100% Air (Molds; Strawberries): 80%
- % Inhibition Compared to 100% Air (Molds; Tomatoes): 51%
- Result (inhibition vs air), maximum inhibition of enzyme activity (Tyrosinase EC 1.14.18.1): −60%
- Result (inhibition), maximum inhibition of enzyme activity [3]: −85.8%
- Result, With Lipase (Lipase EC 3.1.1.3): −18%
- inhibition (up to) (Lipase EC 3.1.1.3): up to −20%
- Result, Class V isomerases [4]: −37%
- Result (inhibition), maximum inhibition of enzyme activity [5]: −17%
- % Inhibition Compared to 100% Air (Yeasts; Carrots): 49%
- % Inhibition Compared to 100% Air (Yeasts; Fish Fillets): 35%
- % Inhibition Compared to 100% Air (Yeasts; Green Beans, Refrigerated): 20%
- % Inhibition Compared to 100% Air (Yeasts; Green Beans, Room Temperature): 10%
- % Inhibition Compared to 100% Air (Yeasts; Ground Beef): 28%
- % Inhibition Compared to 100% Air (Yeasts; Lettuce): 28%
- % Inhibition Compared to 100% Air (Yeasts; Mixed Salad (Chef Salad)): 47%
- % Inhibition Compared to 100% Air (Yeasts; Shrimp): 2%
- % Inhibition Compared to 100% Air (Yeasts; Smelt): 17%
- % Inhibition Compared to 100% Air (Yeasts; Steaks): 16%
- % Inhibition Compared to 100% Air (Yeasts; Strawberries): 12%
- % Inhibition Compared to 100% Air (Yeasts; Tomatoes): 38%

Structure (SMILES): O=C=O [CO2, carbon dioxide, reference compound]
- % Inhibition Compared to 100% Air (Aerobes; Carrots): 24%
- % Inhibition Compared to 100% Air (Aerobes; Fish Fillets): 14%
- % Inhibition Compared to 100% Air (Aerobes; Green Beans, Refrigerated): 26%
- % Inhibition Compared to 100% Air (Aerobes; Green Beans, Room Temperature): 10%
- % Inhibition Compared to 100% Air (Aerobes; Ground Beef): 9%
- % Inhibition Compared to 100% Air (Aerobes; Lettuce): 9%
- % Inhibition Compared to 100% Air (Aerobes; Mixed Salad (Chef Salad)): 2%
- % Inhibition Compared to 100% Air (Aerobes; Shrimp): 4%
- % Inhibition Compared to 100% Air (Aerobes; Steaks): 21%
- % Inhibition Compared to 100% Air (Aerobes; Strawberries): 48%
- % Inhibition Compared to 100% Air (Aerobes; Tomatoes): 92%
- % Inhibition Compared to 100% Air (Molds; Carrots): 3%
- % Inhibition Compared to 100% Air (Molds; Fish Fillets): 18%
- % Inhibition Compared to 100% Air (Molds; Green Beans, Refrigerated): 2%
- % Inhibition Compared to 100% Air (Molds; Green Beans, Room Temperature): 3%
- % Inhibition Compared to 100% Air (Molds; Ground Beef): 2%
- % Inhibition Compared to 100% Air (Molds; Lettuce): 2%
- % Inhibition Compared to 100% Air (Molds; Mixed Salad (Chef Salad)): 4%
- % Inhibition Compared to 100% Air (Molds; Shrimp): 2%
- % Inhibition Compared to 100% Air (Molds; Smelt): 29%
- % Inhibition Compared to 100% Air (Molds; Steaks): 17%
- % Inhibition Compared to 100% Air (Molds; Strawberries): 100%
- % Inhibition Compared to 100% Air (Molds; Tomatoes): 62%
- Result (inhibition vs air), maximum inhibition of enzyme activity (Tyrosinase EC 1.14.18.1): 0%
- depression of yeasts and molds with respect to nitrogen or air (Yeasts and molds; Bread): may be superior
- depression of yeasts and molds with respect to nitrogen or air (Yeasts and molds; Pasta): may be superior
- % Inhibition Compared to 100% Air (Yeasts; Carrots): 35%
- % Inhibition Compared to 100% Air (Yeasts; Fish Fillets): 36%
- % Inhibition Compared to 100% Air (Yeasts; Green Beans, Refrigerated): 55%
- % Inhibition Compared to 100% Air (Yeasts; Green Beans, Room Temperature): 19%
- % Inhibition Compared to 100% Air (Yeasts; Ground Beef): 4%
- % Inhibition Compared to 100% Air (Yeasts; Lettuce): 4%
- % Inhibition Compared to 100% Air (Yeasts; Mixed Salad (Chef Salad)): 63%
- % Inhibition Compared to 100% Air (Yeasts; Shrimp): 8%
- % Inhibition Compared to 100% Air (Yeasts; Smelt): 0.8%
- % Inhibition Compared to 100% Air (Yeasts; Steaks): 15%
- % Inhibition Compared to 100% Air (Yeasts; Strawberries): 32%
- % Inhibition Compared to 100% Air (Yeasts; Tomatoes): 80%

Structure (SMILES): N#N [Gas N2, nitrogen, reference compound]
- Result (inhibition vs air), maximum inhibition of enzyme activity (Tyrosinase EC 1.14.18.1): 0%
- inhibition of chemical oxidation, order of effect of the gases [6]: has no such ability

Structure (SMILES): [Kr] [Kr, krypton]
- Result [1]: −16%
- Result (inhibition), maximum inhibition of enzyme activity [2]: −8%
- Result (inhibition vs air), maximum inhibition of enzyme activity (Tyrosinase EC 1.14.18.1): −73%
- Result (inhibition), maximum inhibition of enzyme activity [3]: −92.7%
- Result, With Lipase (Lipase EC 3.1.1.3): −25%
- Result (inhibition), maximum inhibition of enzyme activity [5]: −82%

Structure (SMILES): [Ne] [Ne, neon]
- Result (Phosphoglucose isomerase): −45%
- Result [1]: −15%
- Result (inhibition), maximum inhibition of enzyme activity [2]: −3%
- Result (inhibition vs air), maximum inhibition of enzyme activity (Tyrosinase EC 1.14.18.1): −46.7%
- Result (inhibition), maximum inhibition of enzyme activity [3]: −61.7%
- Result, With Lipase (Lipase EC 3.1.1.3): −15%
- Result (inhibition), maximum inhibition of enzyme activity [5]: −12%

Structure (SMILES): [Xe] [Xe, xenon]
- Result (Phosphoglucose isomerase): −61%
- Result [1]: −18%
- Result (inhibition), maximum inhibition of enzyme activity [2]: −7% (inhibition)
- Result (inhibition), maximum inhibition of enzyme activity [3]: −91.6% (inhibition)
- Result, With Lipase (Lipase EC 3.1.1.3): −25.6%
- Result (inhibition), maximum inhibition of enzyme activity [5]: −17% (inhibition)
